Measured values: paper PMC7327383, “The affinity and selectivity of α‐adrenoceptor antagonists, antidepressants, and antipsychotics for the human α1A, α1B, and α1D‐adrenoceptors” (Pharmacology Research & Perspectives, 2020)
Where two headings read alike, the source gives them in different places.

Experiments:
[1] = target: T1, full-length human α1D-adrenoceptor (Homo sapiens, UniProt P25100); test: [3H]prazosin whole-cell competition binding, CHO-α1D cells
T1 sequence (P25100 1-572): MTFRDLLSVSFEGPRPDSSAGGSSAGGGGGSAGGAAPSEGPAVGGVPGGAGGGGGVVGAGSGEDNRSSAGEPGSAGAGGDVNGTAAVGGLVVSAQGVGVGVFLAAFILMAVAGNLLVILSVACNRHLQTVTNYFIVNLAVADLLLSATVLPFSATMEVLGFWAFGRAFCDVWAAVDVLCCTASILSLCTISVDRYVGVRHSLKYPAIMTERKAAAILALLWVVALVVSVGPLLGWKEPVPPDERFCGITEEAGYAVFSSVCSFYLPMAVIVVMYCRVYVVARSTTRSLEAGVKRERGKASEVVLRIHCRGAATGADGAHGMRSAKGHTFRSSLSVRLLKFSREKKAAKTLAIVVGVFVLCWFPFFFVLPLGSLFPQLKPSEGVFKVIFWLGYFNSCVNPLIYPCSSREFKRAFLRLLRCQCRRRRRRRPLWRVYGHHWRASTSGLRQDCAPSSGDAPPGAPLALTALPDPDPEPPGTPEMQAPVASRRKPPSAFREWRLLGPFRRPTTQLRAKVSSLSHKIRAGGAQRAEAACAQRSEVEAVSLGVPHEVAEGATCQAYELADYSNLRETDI

human α1A-adrenoceptor = target: T2, human α1A-adrenoceptor (Homo sapiens, UniProt P35348); test: [3H]prazosin whole-cell competition binding, CHO-α1A cells
T2 construct: CHO cells stably expressing either the full‐length human α1A, α1B, or α1D‐adrenoceptor
T2 sequence (P35348 1-466): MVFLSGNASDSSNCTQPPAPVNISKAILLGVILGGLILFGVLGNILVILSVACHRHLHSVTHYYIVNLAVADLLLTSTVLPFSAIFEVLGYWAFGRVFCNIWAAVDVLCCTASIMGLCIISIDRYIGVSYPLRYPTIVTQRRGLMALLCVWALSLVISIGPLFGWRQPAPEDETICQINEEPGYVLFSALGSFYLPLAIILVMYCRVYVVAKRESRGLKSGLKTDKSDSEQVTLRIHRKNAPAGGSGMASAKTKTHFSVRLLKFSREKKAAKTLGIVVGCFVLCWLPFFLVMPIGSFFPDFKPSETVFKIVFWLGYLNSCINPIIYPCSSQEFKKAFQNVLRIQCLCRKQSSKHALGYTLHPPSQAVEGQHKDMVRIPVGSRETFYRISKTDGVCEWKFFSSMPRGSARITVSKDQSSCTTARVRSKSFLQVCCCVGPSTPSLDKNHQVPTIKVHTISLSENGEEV

human α1B-adrenoceptor = target: T3, human α1B-adrenoceptor (Homo sapiens, UniProt P35368); test: [3H]prazosin whole-cell competition binding, CHO-α1B cells; conditions: for IC50: read-out: Log IC50 α1B (converted)
T3 construct: CHO cells stably expressing either the full‐length human α1A, α1B, or α1D‐adrenoceptor
T3 sequence (P35368 1-520): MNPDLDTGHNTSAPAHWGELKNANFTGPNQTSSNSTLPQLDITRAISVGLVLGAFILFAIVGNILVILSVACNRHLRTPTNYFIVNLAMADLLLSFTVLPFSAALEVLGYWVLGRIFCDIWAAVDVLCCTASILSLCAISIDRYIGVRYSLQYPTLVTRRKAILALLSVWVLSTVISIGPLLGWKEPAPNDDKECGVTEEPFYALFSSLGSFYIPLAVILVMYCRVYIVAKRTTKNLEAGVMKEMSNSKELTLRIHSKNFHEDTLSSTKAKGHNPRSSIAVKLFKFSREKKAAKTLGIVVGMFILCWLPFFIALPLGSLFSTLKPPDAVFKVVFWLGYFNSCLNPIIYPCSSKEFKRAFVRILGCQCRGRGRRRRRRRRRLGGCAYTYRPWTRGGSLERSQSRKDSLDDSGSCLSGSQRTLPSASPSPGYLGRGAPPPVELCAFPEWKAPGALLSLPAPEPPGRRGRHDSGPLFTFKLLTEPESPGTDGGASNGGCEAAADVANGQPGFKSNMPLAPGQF

[2] = Log KD α1D, single-component inhibition curve, given as log KD (negative), mean ± SE mean
[3] = single-component inhibition curve, given as log KD (negative), mean ± SE mean
[4] = single-component inhibition curve, given as log KD (negative), mean ± SE mean, read-out: Log KD α1B (converted)
[5] = low-affinity component of two-component curve, control
[6] = two-component inhibition curve, proportion of site 1
[7] = log KD from 3H-prazosin whole cell binding, CHO cells, mean ± s.e.mean
[8] = percentage of inhibition through first component, control
[9] = Log KD α1D site 1, high-affinity component of two-component curve, control, used for selectivity

CNCCC(Oc1ccc(C(F)(F)F)cc1)c1ccccc1 (stereo not shown) [Fluoxetine]
Kd [1, 2]: 12.6 µM

COc1ccccc1N1CCN(CCn2c(=O)[nH]c3c([nH]c4ccccc43)c2=O)CC1 [3‐MPPI]
Log KD α1A (human α1A-adrenoceptor; [3]): −9.57 ± 0.06
Log KD α1B (human α1B-adrenoceptor; [3]): −8.59 ± 0.03

COc1cc2nc(N3CCN(C(=O)C4CCCO4)CC3)nc(N)c2cc1OC (stereo not shown) [Terazosin]
Kd [1, 2]: 0.0195 µM

CC(CN(C)C)CN1c2ccccc2CCc2ccccc21 (stereo not shown) [Trimipramine]
Kd (human α1B-adrenoceptor; [4]): 0.794 µM
Kd [1, 2]: 1.02 µM

CC(COc1ccccc1)N(CCCl)Cc1ccccc1 (stereo not shown) [Phenoxybenzamine]
Kd (human α1B-adrenoceptor; high-affinity component of two-component curve, control, read-out: Log KD α1B site 1 (converted)): 0.0204 µM
Log KD α1B site 2 (human α1B-adrenoceptor; [5]): −5.57 ± 0.06
% site 1, α1B (human α1B-adrenoceptor; share of site 1 in the two-component inhibition curve): -7.69 ± 0.06 -5.57 ± 0.06 67.5 ± 2.5% site 1
% site 1, α1B (human α1B-adrenoceptor; [6]): -7.69 ± 0.06 -5.57 ± 0.06 67.5 ± 2.5% site 1
Kd [1]: 0.00372 µM
Log KD α1D site 2 [1, 5]: −5.42 ± 0.08
% site 1 α1D [1, 6]: -8.43 ± 0.19 -5.42 ± 0.08 39.1 ± 2.0% site 1

COc1ccccc1N1CCN(CCn2c(=O)[nH]c3c([nH]c4ccccc43)c2=O)CC1 [3-MPPI]
Log KD α1A (human α1A-adrenoceptor; [7]): -9.57 ± 0.06
Log KD α1B (human α1B-adrenoceptor; [7]): -8.59 ± 0.03

CC(C)NCC(O)COc1cccc2ccccc12 (stereo not shown) [Propranolol]
Kd (human α1B-adrenoceptor; app: top concentration inhibited most but not all specific binding, curve extrapolated, read-out: Log KD α1B (apparent) (converted)): 105 µM
Kd [1, 2]: 12.9 µM

O=c1[nH]c2ccccc2n1C1CCN(CCCC(c2ccc(F)cc2)c2ccc(F)cc2)CC1 [Pimozide]
Kd (human α1B-adrenoceptor; [4]): 0.162 µM
Kd [1, 2]: 1.12 µM

CNCCCN1c2ccccc2CCc2ccccc21 [Desipramine]
Kd (human α1B-adrenoceptor; [4]): 2.69 µM
Kd [1, 2]: 3.47 µM

CN(C)CCCN1c2ccccc2Sc2ccc(Cl)cc21 [Chlorpromazine]
Kd (human α1B-adrenoceptor; [4]): 0.0145 µM
% site 1 α1D [1, 8]: 56.0 ± 5.0% site 1

OCCOCCN1CCN(C2=Nc3ccccc3Sc3ccccc32)CC1 [Quetiapine]
Kd (human α1B-adrenoceptor; [4]): 0.0617 µM
Kd [1, 2]: 0.331 µM

COc1cc2nc(N3CCN(C(=O)COc4c(OC)cccc4C(C)C)CC3)nc(N)c2cc1OC [Rec15‐2615]
Log KD α1D [1, 3]: −7.89 ± 0.07

O=C1[C@@H]2[C@H]3CC[C@H](C3)[C@@H]2C(=O)N1C[C@@H]1CCCC[C@H]1CN1CCN(c2nsc3ccccc23)CC1 [Lurasidone]
Kd (human α1B-adrenoceptor; [4]): 0.0676 µM
Kd [1, 9]: 0.00646 µM
Log KD α1D site 2 [1, 5]: −5.92 ± 0.06
% site 1 α1D [1, 8]: 24.8 ± 3.1% site 1
% site 1 α1D [1, 6]: -8.19 ± 0.10 -5.92 ± 0.06 24.8 ± 3.1% site 1

COc1cccc(OC)c1OCCNCC1COc2ccccc2O1 (stereo not shown) [WB4104]
Log KD α1A (human α1A-adrenoceptor; [3]): −9.03 ± 0.04

CN1CCN2c3ncccc3Cc3ccccc3C2C1 (stereo not shown) [Mirtazepine]
Log KD α1B (human α1B-adrenoceptor; [3]): −5.36 ± 0.03

CCOc1ccccc1OCCN[C@H](C)Cc1ccc(OC)c(S(N)(=O)=O)c1 [Tamsulosin]
Kd (human α1B-adrenoceptor; Log KD α1B, +1 mmol/L sodium thiosulphate, ligand preincubated 30 min with thiosulphate, single-component curve (column Log KD site 1)): 0.00741 µM
Kd (human α1B-adrenoceptor; [4]): 0.00759 µM
Log KD α1D site 2 [1]: −5.67 ± 0.15
Log KD α1D site 2, +1 mmol/L sodium thiosulphate [1]: −5.60 ± 0.08
effect of sodium thiosulfate preincubation on binding ([1]; 1 mmol/L sodium thiosulfate, tamsulosin at all three receptors (Table 2)): no effect
Kd ([1]; Log KD α1D site 1, +1 mmol/L sodium thiosulphate, two-component curve, high-affinity component): 0.000776 µM
Kd [1, 9]: 0.000661 µM
% site 1 α1D, +1 mmol/L sodium thiosulphate ([1]; two-component curve): 44.0 ± 2.8%
% site 1 α1D [1, 6]: -9.18 ± 0.08 -5.67 ± 0.15 54.6 ± 3.7% site 1

CNCC[C@H](Oc1cccc2ccccc12)c1cccs1 [Duloxetine]
Kd (human α1B-adrenoceptor; read-out: Log KD α1B (apparent) (converted)): 19.5 µM
Kd [1]: 2.63 µM

CN(C)CCC=C1c2ccccc2COc2ccccc21 [Doxepin]
Kd (human α1B-adrenoceptor; [4]): 0.661 µM
Kd [1, 2]: 0.537 µM

COCCCC/C(=N\OCCN)c1ccc(C(F)(F)F)cc1 [Fluvoxamine]
IC50 (human α1B-adrenoceptor): > 100 µM
Kd [1, 2]: 10.7 µM

COc1cc2nc(N(C)CCCNC(=O)C3CCCO3)nc(N)c2cc1OC (stereo not shown) [Alfuzosin]
Kd (human α1B-adrenoceptor; [4]): 0.0275 µM
Kd [1, 2]: 0.0219 µM

O=c1[nH]c2ccccc2n1CCCN1CCC(n2c(=O)[nH]c3cc(Cl)ccc32)CC1 [Domperidone]
Kd (human α1B-adrenoceptor; [4]): 3.16 µM
Kd [1, 2]: 1.05 µM

COc1ccccc1OCCNCC(O)COc1cccc2[nH]c3ccccc3c12 (stereo not shown) [Carvedilol]
Kd [1, 2]: 0.0135 µM

O=C1CCc2ccc(OCCCCN3CCN(c4cccc(Cl)c4Cl)CC3)cc2N1 [Aripiprazole]
Kd [1, 2]: 0.708 µM

COc1cc2nc(N3CCN(C(=O)COc4c(OC)cccc4C(C)C)CC3)nc(N)c2cc1OC [Rec15-2615]
Log KD α1D [1, 7]: -7.89 ± 0.07

Cc1ccc(N(CC2=NCCN2)c2cccc(O)c2)cc1 [Phentolamine]
% site 1 α1D [1, 8]: 60.5 ± 3.8% site 1

Fc1ccc([C@@H]2CCNC[C@H]2COc2ccc3c(c2)OCO3)cc1 [Paroxetine]
IC50 (human α1B-adrenoceptor): > 10 µM
Kd [1, 2]: 2.34 µM

OCCN1CCN(CCCN2c3ccccc3Sc3ccc(Cl)cc32)CC1 [Perphenazine]
Kd (human α1B-adrenoceptor; [4]): 0.0372 µM
Kd [1, 9]: 0.0138 µM
Log KD α1D site 2 [1, 5]: −6.03 ± 0.19
% site 1 α1D [1, 8]: 53.3 ± 4.1% site 1
% site 1 α1D [1, 6]: -7.86 ± 0.10 -6.03 ± 0.19 53.3 ± 4.1% site 1

CN1CCN(CCCN2c3ccccc3Sc3ccc(C(F)(F)F)cc32)CC1 [Trifluoperazine]
Kd (human α1B-adrenoceptor; [4]): 0.132 µM
Kd [1, 2]: 0.437 µM

CN1CCN(CCCN2c3ccccc3Sc3ccc(Cl)cc32)CC1 [Prochlorperazine]
Kd (human α1B-adrenoceptor; [4]): 0.132 µM
Kd [1, 2]: 0.295 µM

CC(C)C[C@H]1C(=O)N2CCC[C@H]2[C@]2(O)O[C@](NC(=O)[C@@H]3C=C4c5cccc6[nH]c(Br)c(c56)C[C@H]4N(C)C3)(C(C)C)C(=O)N12 [Bromocriptine]
Kd (human α1B-adrenoceptor; [4]): 0.011 µM
Kd [1]: 0.049 µM

O=c1n(CCCN2CCN(c3cccc(Cl)c3)CC2)nc2ccccn12 [Trazodone]
Kd (human α1B-adrenoceptor; [4]): 0.275 µM
Kd [1, 2]: 0.417 µM

COc1ccccc1N1CCN(CCN2C(=O)CC3(CCCC3)CC2=O)CC1 [BMY7378]
Kd (human α1B-adrenoceptor; [4]): 0.589 µM
% site 1 α1D [1, 8]: 57.7 ± 2.6% site 1
% site 1 α1D [1, 6]: -8.60 ± 0.13 -5.93 ± 0.37 57.7 ± 2.6% site 1

CN(C)CCCC1(c2ccc(F)cc2)OCc2cc(C#N)ccc21 (stereo not shown) [Citalopram]
IC50 (human α1B-adrenoceptor): > 100 µM
Kd [1, 2]: 12.3 µM
